Data published in patent US7053050B2, “Preventives/remedies for proliferative organ diseases chronic arthritic diseases, hypertrophic scar or keloid” (Yoshiko Yasuda, priority 2001, dated 2006).

System: malignant melanoma cell strains (P39) tumor
Experiment: Heterotransplantation of malignant melanoma cells in nude mice; PCNA and CD31 staining of the excised tumor
Assay type: in vivo, nude mice (Balb/c Jcl-nu)
Protocol: EMP9 was synthesized by a known method and dissolved in saline. The solution was colored with addition of Evans blue at the final concentration of 0.25%.
Five-week old nude mice (Balb/c Jcl-nu, Japan Clea Inc.) were purchased, maintained in a germfree chamber for a week for acclimatization and then used. 5×10^6 cells of malignant melanoma cell strains (P39, Utsumi and Elkind, 1993) were suspended in a culture solution (0.1 ml) and the suspension was injected subcutaneously interscapularly into the mice. After a few weeks, formation of tumor was observed on the outer skin surface. The major axis×minor axis×height of the tumor was measured twice a week. The tumor was observed until its size became 6×7×7 mm, thereafter administration was started. After the administration, the size of the tumor was measured in a similar manner.
Four doses of 0.1 ml of a 0.5 mg/ml EMP9 solution were administered intraperitoneally at intervals of 1 hr. After 24 hr and 48 hr, 0.1 ml of the solution was administered similarly 4 times, respectively. On the 7th day from the first administration, the tumor was excised.
The excised tumor was fixed in Zamboni fixing liquid or frozen in liquid nitrogen. The tumor fixed in Zamboni fixing liquid was divided into several tissue masses. The plural samples collected from the respective masses were embedded to prepare tissue sections thereof. The proliferating cells were stained using PCNA antibody and the vascular endothelial cells were stained using CD31 antibody, respectively. Hematoxylin was used for nuclear staining. Each of the section specimens was observed under a microscope at 200-fold magnification. The cell number in 20 compartments wherein one compartment has an area of 17.6×10^−3 mm^2 was counted (the cell number was not less than 4,500). The cell proliferation ratio was calculated from the following equation and represented in [Table 1]. Furthermore, the number of blood vessel in 100 compartments was counted, and the average number per a compartment (13.1×10^−2 mm^2) was calculated and represented in [Table 1]. […]

Question: Which results are given for “erythropoietin mimetic peptide 9 (GGTYSCHFAPLTWVCKPQGG) [EMP9, erythropoietin receptor antagonist]”?
Answer: Proliferation ratio (%) (P39 melanoma tumor in nude mice, 0.1 ml of 0.5 mg/ml EMP9 intraperitoneally 4 times at 1 hr intervals, repeated after 24 hr and 48 hr, tumor excised on 7th day, PCNA staining, proliferating cells/living cells x100): 3.03%; Inhibitory effects on tumor proliferation and neovascular proliferation (conclusion in words) (conclusion from Table 1, significant difference versus saline group (p<0.05)): superior inhibitory effects on both tumor proliferation and neovascular proliferation; Number of blood vessel (average ± standard error) (same regimen, CD31 staining, average number per compartment (13.1×10^−2 mm^2), 100 compartments counted): 0.64 ± 0.10
